Each compound was assayed against T1, G-protein coupled bile acid receptor 1 (Homo sapiens, UniProt Q8TDU6) (assay: Positive allosteric modulator activity at human TGR5 expressed in HEK293T cells assessed as increase in cAMP accumulation incubated for 1 hr at 37 degC and further incubated for 1 hr at room temperature by glosensor cAMP accumulation assay).
T1 sequence (Q8TDU6 whole entry): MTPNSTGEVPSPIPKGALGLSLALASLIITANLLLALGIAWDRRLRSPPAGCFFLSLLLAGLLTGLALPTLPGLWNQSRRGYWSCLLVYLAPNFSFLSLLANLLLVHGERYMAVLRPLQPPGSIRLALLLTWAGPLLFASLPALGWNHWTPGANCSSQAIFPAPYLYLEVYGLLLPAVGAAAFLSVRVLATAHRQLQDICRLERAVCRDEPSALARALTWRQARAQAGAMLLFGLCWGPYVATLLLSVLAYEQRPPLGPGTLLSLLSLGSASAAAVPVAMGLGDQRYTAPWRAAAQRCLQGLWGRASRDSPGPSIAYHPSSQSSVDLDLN
Assay type: functional, cell-based
`CO[C@@H]1C[C@@H]2C[C@H](O)CC[C@]2(C)[C@H]2CC(=O)[C@]3(C)[C@@H]([C@H](C)CCC(=O)OCc4ccccc4)CC[C@H]3[C@H]12` showed an EC50 of 76.5 µM. Work on `CO[C@@H]1C[C@@H]2C[C@H](O)CC[C@]2(C)[C@H]2CC(=O)[C@]3(C)[C@@H]([C@H](C)CCC(=O)OC(C)C)CC[C@H]3[C@H]12` yielded an EC50 of 12 µM. `CO[C@@H]1C[C@@H]2C[C@H](O)CC[C@]2(C)[C@H]2CC(=O)[C@]3(C)[C@@H]([C@H](C)CCC(=O)Oc4cccc5ccccc45)CC[C@H]3[C@H]12` was tested, and the EC50 was 38 µM. `CO[C@@H]1C[C@@H]2C[C@H](O)CC[C@]2(C)[C@H]2C[C@H](O)[C@]3(C)[C@@H]([C@H](C)CCC(=O)OC4CC4)CC[C@H]3[C@H]12` showed an EC50 of 8.9 µM. With `CO[C@@H]1C[C@@H]2C[C@H](O)CC[C@]2(C)[C@H]2CC(=O)[C@]3(C)[C@@H]([C@H](C)CCC(=O)OCC4CC4)CC[C@H]3[C@H]12` the EC50 was 9.5 µM. `CO[C@@H]1C[C@@H]2C[C@H](O)CC[C@]2(C)[C@H]2CC(=O)[C@]3(C)[C@@H]([C@H](C)CCC(=O)Oc4ccccc4)CC[C@H]3[C@H]12` was tested, and the EC50 was 5.5 µM. Compound `CO[C@@H]1C[C@@H]2C[C@H](O)CC[C@]2(C)[C@H]2C[C@H](O)[C@]3(C)[C@@H]([C@H](C)CCC(=O)Oc4ccc5ccccc5c4)CC[C@H]3[C@H]12` has an EC50 of over 100 µM. `CO[C@@H]1C[C@@H]2C[C@H](O)CC[C@]2(C)[C@H]2C[C@H](O)[C@]3(C)[C@@H]([C@H](C)CCC(=O)Oc4ccccc4)CC[C@H]3[C@H]12` showed an EC50 of 18.5 µM. For `COC(=O)CC[C@@H](C)[C@H]1CC[C@H]2[C@@H]3[C@H](OC)C[C@@H]4C[C@H](O)CC[C@]4(C)[C@H]3CC(=O)[C@]12C`, the EC50 was 5.3 µM. Work on `COC(=O)CC[C@@H](C)[C@H]1CC[C@H]2[C@@H]3[C@H](OC)C[C@@H]4C[C@H](O)CC[C@]4(C)[C@H]3C[C@H](O)[C@]12C` yielded an EC50 of 8 µM. With `CO[C@@H]1C[C@@H]2C[C@H](O)CC[C@]2(C)[C@H]2CC(=O)[C@]3(C)[C@@H]([C@H](C)CCC(=O)Oc4ccc5ccccc5c4)CC[C@H]3[C@H]12` the EC50 was over 100 µM. `CCOC(=O)CC[C@@H](C)[C@H]1CC[C@H]2[C@@H]3[C@H](OC)C[C@@H]4C[C@H](O)CC[C@]4(C)[C@H]3C[C@H](O)[C@]12C` was tested, and the EC50 was 19.8 µM. `CCOC(=O)CC[C@@H](C)[C@H]1CC[C@H]2[C@@H]3[C@H](OC)C[C@@H]4C[C@H](O)CC[C@]4(C)[C@H]3CC(=O)[C@]12C` showed an EC50 of 31.6 µM. With `CO[C@@H]1C[C@@H]2C[C@H](O)CC[C@]2(C)[C@H]2CC(=O)[C@]3(C)[C@@H]([C@H](C)CCC(=O)OC4CC4)CC[C@H]3[C@H]12` the EC50 was 6.3 µM. In the case of `CO[C@@H]1C[C@@H]2C[C@H](O)CC[C@]2(C)[C@H]2C[C@H](O)[C@]3(C)[C@@H]([C@H](C)CCC(=O)OCC4CC4)CC[C@H]3[C@H]12`, the EC50 is reported as 14.1 µM. Compound `CO[C@@H]1C[C@@H]2C[C@H](O)CC[C@]2(C)[C@H]2C[C@H](O)[C@]3(C)[C@@H]([C@H](C)CCC(=O)OCC4CCCC4)CC[C@H]3[C@H]12` has an EC50 of 25.8 µM. Compound `CO[C@@H]1C[C@@H]2C[C@H](O)CC[C@]2(C)[C@H]2C[C@H](O)[C@]3(C)[C@@H]([C@H](C)CCC(=O)OC4CCCC4)CC[C@H]3[C@H]12` has an EC50 of 21.8 µM. For `CO[C@@H]1C[C@@H]2C[C@H](O)CC[C@]2(C)[C@H]2CC(=O)[C@]3(C)[C@@H]([C@H](C)CCC(=O)OCC4CCCC4)CC[C@H]3[C@H]12`, the EC50 was 62 µM. `CO[C@@H]1C[C@@H]2C[C@H](O)CC[C@]2(C)[C@H]2C[C@H](O)[C@]3(C)[C@@H]([C@H](C)CCC(=O)OCc4ccccc4)CC[C@H]3[C@H]12` was tested, and the EC50 was 92.5 µM. For `CO[C@@H]1C[C@@H]2C[C@H](O)CC[C@]2(C)[C@H]2C[C@H](O)[C@]3(C)[C@@H]([C@H](C)CCC(=O)Oc4cccc5ccccc45)CC[C@H]3[C@H]12`, the EC50 was 48.5 µM. In the case of `CO[C@@H]1C[C@@H]2C[C@H](O)CC[C@]2(C)[C@H]2CC(=O)[C@]3(C)[C@@H]([C@H](C)CCC(=O)OC4CCCC4)CC[C@H]3[C@H]12`, the EC50 is reported as 23 µM. `CO[C@@H]1C[C@@H]2C[C@H](O)CC[C@]2(C)[C@H]2C[C@H](O)[C@]3(C)[C@@H]([C@H](C)CCC(=O)OC(C)C)CC[C@H]3[C@H]12` gave an EC50 of 9.8 µM.

From ChEMBL document CHEMBL5370567 (Bioorg Med Chem, 2023)
